One test relates to gastric acid secretion. Kind of test: Inhibitory effect on gastric acid secretion by Schild method (pentagastrin-stimulated). Type of test: in vivo, rat (male Sprague Dawley). The following applies: intraduodenal, rat, read-out: Inhibitory Effect on acid secretion (Schild method), percent inhibition. The text has this: Evaluation of Inhibitory Effect on Gastric Acid Secretion by Schild Method
Twenty four hour starved (ad libitum for water) male Sprague Dawley rats (8-week-old) were anesthetized with urethane (1.5 g/kg S.C.) and kept breathing with esophagus cannulas. After laparotomy, esophagus cannulas were inserted orally up to proventriculus and ligated around gastric cardiac. Perfusion cannulas were inserted from duodenum into stomach and ligated around pylorus. Another cannulas were placed into duodenum and ligated for administration of drug. After sutra of abdomen, stomach was perfused via the esophagus cannulas with physiological saline (37° C.) while collecting perfusate for a 15 min interval. The perfusate was subjected to titration with 0.001 N NaOH solution to determine the acidity. When the basal acid secretion became stable, pentagastrin ([…]) was administered in a sustained manner via common carotid vein for about 90 min until the acid secretion reached approximately the highest level, when a test compound (0.5% M.C. suspension) was administered into duodenum through cannulas. The perfusate was collected for a 15 min interval to monitor the acid secretion for 90 min. The percent inhibition was calculated as follows:
Percent inhibition (%)=100×(A-B)/(C-B)
A: the minimum value of total acidity observed after the administration of a test compound;
B: the total acidity obtained immediately before the administration of pentagastrin; and
C: the total acidity obtained immediately before the administration of a test compound.

Another test deals with T1, CCK-B receptor (Mus musculus, UniProt P56481).
T1 construct: crude membrane specimen from mouse cerebral cortex; from tissue; host or cells: cerebral cortex of male ddY mice, crude membranes
T1 sequence (P56481 1-453): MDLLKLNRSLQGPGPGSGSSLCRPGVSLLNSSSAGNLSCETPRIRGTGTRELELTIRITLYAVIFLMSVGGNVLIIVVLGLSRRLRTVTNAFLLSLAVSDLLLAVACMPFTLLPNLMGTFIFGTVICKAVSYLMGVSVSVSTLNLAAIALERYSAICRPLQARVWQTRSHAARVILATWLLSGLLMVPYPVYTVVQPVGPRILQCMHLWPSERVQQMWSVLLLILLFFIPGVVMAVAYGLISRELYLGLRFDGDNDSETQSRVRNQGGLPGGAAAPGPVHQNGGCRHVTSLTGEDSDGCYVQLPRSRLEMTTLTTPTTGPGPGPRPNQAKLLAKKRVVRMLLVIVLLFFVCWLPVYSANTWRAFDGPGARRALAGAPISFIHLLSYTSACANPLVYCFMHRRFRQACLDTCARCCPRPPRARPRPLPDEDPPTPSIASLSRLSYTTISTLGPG
Kind of test: CCK-B receptor antagonism, displacement of [3H]CCK-8, cerebral cortex crude membrane. The class given is binding, mouse (male ddY). The note with it: mouse cerebral cortex membrane, [3H]CCK-8 1 nM, 90 min, 25 °C; read-out: Receptor CCK-B (IC50). Here is the method:
(§1) Male Hartley guinea pig (450-600 g) or male ddY mouse (24-30 g) were used.
(§2) (2) CCK-A Receptor Antagonism and CCK-B Receptor Antagonism
(§3) Preparation of CCK receptor preparations
(§4) Male ddY mice (24 to 30 g) were killed by decapitation and cerebral cortex (CCK-B) and pancreas (CCK-A) were extracted immediately. Each of cerebral cortex and pancreas was mixed with 50 mM Tris-HCl buffer (pH 7.4) and homogenized with a teflon-glass homogenizer and polytron homogenizer to obtain crude membrane specimens.
(§5) Preparation of test compounds and procedures of displacing assay A 1M solution of a compound to be tested in DMSO is prepared and diluted with 50% DMSO to obtain a ten-fold dilution series.
(§6) The reaction is initiated by the addition of crude membrane specimen to solutions of different concentration each containing [^3 H]CCk-8 (final concentration, 1 nM). The mixture is incubated for 90 min at 25° C., filtered through glass filter with aspiration and washed with a cooled 50 mM Tris buffer. After the addition of Aquazol-2 cocktail the radioactivity is counted. The same procedure was repeated using 50% DMSO solution or Ceruletide (final concentration, 1 μM) instead of a solution of test compound so as to obtain the control value regarding total binding or the value regarding non-specific binding, respectively. […]
(§7) specific binding of control=total binding (cpm)-non-specific binding (cpm); and specific binding of test compound=[…]-non-specific binding (cpm).

For another test, the target named is T2, CCK-A receptor (Mus musculus, UniProt O08786).
T2 construct: crude membrane specimen from mouse pancreas; from tissue; host or cells: pancreas of male ddY mice, crude membranes
T2 sequence (O08786 1-436): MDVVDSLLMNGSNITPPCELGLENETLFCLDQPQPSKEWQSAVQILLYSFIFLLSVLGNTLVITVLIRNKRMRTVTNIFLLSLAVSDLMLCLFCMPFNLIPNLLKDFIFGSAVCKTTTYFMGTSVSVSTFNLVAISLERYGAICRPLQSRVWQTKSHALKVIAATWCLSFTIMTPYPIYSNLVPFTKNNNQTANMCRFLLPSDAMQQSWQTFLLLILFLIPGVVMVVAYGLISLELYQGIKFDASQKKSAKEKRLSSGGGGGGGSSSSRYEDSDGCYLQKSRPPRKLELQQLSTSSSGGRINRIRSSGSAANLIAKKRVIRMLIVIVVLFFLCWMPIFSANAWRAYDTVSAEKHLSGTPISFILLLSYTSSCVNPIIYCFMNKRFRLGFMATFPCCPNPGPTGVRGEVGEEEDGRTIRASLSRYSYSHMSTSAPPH
Put plainly: CCK-A receptor antagonism, displacement of [3H]CCK-8, pancreas crude membrane. The class given is binding, mouse (male ddY). The note with it: mouse pancreas membrane, [3H]CCK-8 1 nM, 90 min, 25 °C; read-out: Receptor CCK-A (IC50). How it is done: as §1, §2, §3, §4, §5, §6, §7

A further test concerns the target T3, gastrin receptor (Cavia porcellus, UniProt H0VZC5).
T3 construct: stomach was extracted from each animal immediately, from which gastric glands were prepared; from tissue; host or cells: gastric (fundic) glands of male Hartley guinea pigs
T3 sequence (H0VZC5 1-426): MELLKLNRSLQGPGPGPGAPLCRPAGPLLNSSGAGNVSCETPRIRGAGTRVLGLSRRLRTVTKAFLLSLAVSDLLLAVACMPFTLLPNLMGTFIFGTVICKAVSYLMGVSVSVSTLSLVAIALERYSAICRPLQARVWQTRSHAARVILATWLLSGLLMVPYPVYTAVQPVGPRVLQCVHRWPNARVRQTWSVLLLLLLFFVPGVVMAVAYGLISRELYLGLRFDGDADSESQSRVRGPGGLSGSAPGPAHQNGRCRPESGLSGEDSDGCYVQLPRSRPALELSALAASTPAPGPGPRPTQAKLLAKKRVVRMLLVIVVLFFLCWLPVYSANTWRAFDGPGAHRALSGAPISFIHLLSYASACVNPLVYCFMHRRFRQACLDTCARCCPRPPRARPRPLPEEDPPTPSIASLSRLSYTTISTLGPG
Put plainly: Gastrin receptor antagonism, displacement of 125I-labeled gastrin, gastric (fundic) gland cells. The class given is binding, guinea pig (male Hartley). The following applies: guinea pig gastric glands, 125I-gastrin 0.2 nM, 30 min, 25 °C; read-out: Receptor Gastrin (IC50). How it is done:
as §1
(1) Gastrin Receptor Antagonism
Preparation of gastric glands:
Male Hartley guinea pigs (450-600 g) were killed by bleeding and stomach was extracted from each animal immediately, from which gastric glands were prepared.
Preparation of test compounds and procedures of displacing assay
A 1M solution of a compound to be tested in DMSO is prepared and diluted with 50% DMSO to obtain a ten-fold dilution series.
The mixture is incubated for 30 min at 25° C., centrifuged at 2000 rpm for 5 min and the supernatant is removed by aspiration. To the pellet is added ice-cooled incubation buffer and mixed gently, followed by an immediate centrifugation and removal of the supernatant by aspiration. The radioactivity is counted on gamma counter. The same procedure was repeated using 50% DMSO solution or human gastrin I (final concentration, 2 μM) instead of a solution of test compound so as to obtain the control value regarding total binding or the value regarding non-specific binding, respectively. […]
as §7

As for `Cc1cccc(NC(=O)NC2C(=O)N(CC(=O)N3CCCC3)c3ccccc3N(CC(=O)N3CCCC3)C2=O)c1` [Compound 8a], the inhibition in vivo at 0.3 mg/kg in the test with gastric acid secretion worked out at 49%. Besides, the IC50 was 54 nM on CCK-B receptor, 860 nM on CCK-A receptor and 7 nM on gastrin receptor.
For `Cc1cccc(NC(=O)NC2C(=O)N(CC(=O)c3ccccc3C)c3ccccc3N(CC(=O)c3ccccc3C)C2=O)c1` [Compound 8d, 1,5-Bis-(o-methylphenacyl)-3-{N'-(m-tolyl)-ureido}-1H-1,5-benzodiazepine-2,4(3H,5H)-dione], in that order: 66%, 11 nM, 29 nM and 4 nM.
Taken in the same sequence, the figures for `Cc1cccc(NC(=O)NC2C(=O)N(CC(=O)c3ccco3)c3ccccc3N(CC(=O)c3ccco3)C2=O)c1` [Compound 8f, 1,5-Bis-(2-furylcarbonylmethyl)-3-{N'-(m-tolyl)-ureido}-1H-1,5-benzodiazepine-2,4(3H,5H)-dione] were 73%, 17 nM, 120 nM and 3 nM.
For the molecule `Cc1cccc(NC(=O)NC2C(=O)N(CC(=O)C3CC3)c3ccccc3N(CC(=O)C3CC3)C2=O)c1` [Compound 8h, 1,5-Bis-(cyclopropylcarbonylmethyl)-3-(N'-(m-tolyl)ureido)-1H-1,5-benzodiazepine-2,4(3H,5H)-dione], the inhibition in vivo at 0.3 mg/kg with gastric acid secretion is 81%. In addition, the IC50 at CCK-B receptor worked out at 18 nM; on CCK-A receptor it was 380 nM; at gastrin receptor it was 5 nM.
Take `Cc1cccc(NC(=O)NC2C(=O)N(CC3CC3)c3ccccc3N(CC3CC3)C2=O)c1` [Compound 8o, 1,5-Bis-(cyclopropylmethyl)-3-{N'-(m-tolyl)-ureido}-1H-1,5-benzodiazepine-2,4(3H,5H)-dione]: the inhibition in vivo at 0.3 mg/kg in the test on gastric acid secretion was found to be 60%. For the same molecule, the values for the IC50 at CCK-B receptor, on CCK-A receptor and at gastrin receptor were 23 nM, 860 nM and 12 nM, respectively.
For `Cc1cccc(NC(=O)NC2C(=O)N(Cc3cccc(N)c3)c3ccccc3N(Cc3cccc(N)c3)C2=O)c1` [Compound 8r], in that order: 46%, 21 nM, 760 nM and 18 nM.
With `CCOC(=O)c1cccc(NC(=O)NC2C(=O)N(CC(=O)C3CC3)c3ccccc3N(CC(=O)C3CC3)C2=O)c1` [Compound 17-i], in the test on gastric acid secretion, the inhibition in vivo at 0.3 mg/kg was found to be 44%. Further, the half-maximal inhibitory concentration (IC50) on CCK-B receptor was found to be 140 nM; at CCK-A receptor, 1350 nM; on gastrin receptor, 7 nM.
Taken in the same sequence, the figures for `O=C(Nc1cccc(C(=O)O)c1)NC1C(=O)N(CC(=O)C2CC2)c2ccccc2N(CC(=O)C2CC2)C1=O` [Compound 17-ii] were 72%, 105 nM, > 10000 nM and 5 nM.
For `CC(C)S(=O)(=O)NC(=O)c1cccc(NC(=O)NC2C(=O)N(CC(=O)C3CC3)c3ccccc3N(CC(=O)C3CC3)C2=O)c1` [Compound 17-iii, 1,5-Bis-(cyclopropylcarbonylmethyl)-3-(N'-(m-(isopropylsulfonylaminocarbonyl)phenyl)ureido)-1H-1,5-benzodiazepine-2,4(3H,5H)-dione], in that order: 47%, 190 nM, 11500 nM and 6 nM.
Consider `O=C(Nc1cccc(-c2nnn[nH]2)c1)NC1C(=O)N(CC(=O)C2CC2)c2ccccc2N(CC(=O)C2CC2)C1=O` [Compound 17-iv, 1,5-Bis-(cyclopropylcarbonylmethyl)-3-(N'-(m-(tetrazoyl)phenyl)ureido)-1H-1,5-benzodiazepine-2,4(3H,5H)-dione], for which, in the test with gastric acid secretion, the inhibition in vivo at 0.1 mg/kg came out at 44%. The figures for the IC50 at CCK-B receptor, at CCK-A receptor and at gastrin receptor were 8 nM, 2900 nM and 2 nM, respectively.
For `O=C(O)CSc1cccc(NC(=O)NC2C(=O)N(CC(=O)C3CC3)c3ccccc3N(CC(=O)C3CC3)C2=O)c1` [Compound 17-ix, 1,5-Bis-(cyclopropylcarbonylmethyl)-3-(N'-(m-(carboxymethylthio)phenyl)ureido)-1H-l,5-benzodiazepine-2,4(3H,5H)-dione], in that order: 74%, 2 nM, 500 nM and 0.6 nM.
As for `CCOC(=O)c1cccc(NC(=O)NC2C(=O)N(CC(=O)N3CCCC3)c3ccccc3N(CC(=O)N3CCCC3)C2=O)c1` [Compound 18-i, 1,5-Bis-(pyrrolidinocarbonylmethyl)-3-(N'-(m-(carboethoxy)phenyl)ureido)-1H-1,5-benzodiazepine-2,4(3H,5H)-dione], the values for the IC50 at CCK-B receptor, at CCK-A receptor and on gastrin receptor were 440 nM, 3200 nM and 25 nM, respectively.

Source of the values: patent publication US5776929A, “Benzodiazepine derivative” (Shionogi & Co., Ltd., priority 1993, dated 1998).
